Experimental findings from patent US20220079993A1, “NON-NATURALLY OCCURRING THERMOGENIC ADIPOCYTES, METHODS OF MAKING, AND METHODS OF USE THEREOF” (University of Georgia Research Foundation, Inc., priority 2019, published 2022) are described below.

Common to all, as to format: cell-based, human
Experiment [1] has as its system GC. In words: Seahorse Mito Stress Test. Conditions: forskolin 20 μM for 24 hours. The protocol: FIG. 5A is a line graph showing the oxygen consumption rate from a Seahorse Mito Stress Test assay of GC compared to white adipocytes (WA). Cells were stimulated with forskolin (FSK, 20 uM) for 24 hours prior to treatment, and oligomycin (3 μM), FCCP (3 μM), and antimycin a/rotenone (5 μM) were added at indicated time points. n=9, where n is the number of independent replicates for each cell type/condition. Assay was normalized to total protein content. FIG. 5B is a line graph showing extracellular acidification rate from the assay in FIG. 5A. FIGS. 5C-5E are bar graphs showing basal respiration rate (5C) from the assay maximal respiration (5D) and proton leak (5E) calculated from assay performed in FIG. 5A. FIG. 5F is a bar graph showing the results of a lipolysis assay of ADSCs or GC (BA), treated with forskolin for indicated time period. FIG. 5G is a bar graph showing quantification of thermogenic dye assay of GC with or without forskolin treatment. […]
To perform the assay, ADSCs were plated on XFe24 plates (Agilent) at 5000 cell/cm^2 and grown to confluency. […] Following the assay, cells were lysed using RIPA buffer and protein concentration was determined by Bradford assay. Data was normalized by protein concentration and analyzed in Wave software (Agilent).

The subject of experiment [2] is GC. In words: Lipolysis assay (free glycerol) after forskolin. As for the experimental part: ADSCs were seeded at 5000 cell/cm^2 in 12-well plates, grown for 5 days and then induced to differentiate into GC for 20 days. Prior to the assay, cells were washed in DPBS twice and then incubated with DMEM with 2% fatty-acid free BSA (Santa Crus, sc-500949) and Triascin C (5 μM). Cells were treated with forskolin (20 μM) for indicated time periods and supernatant samples were collected. Lipolysis assay was performed with free glycerol reagent (Sigma, F6428-40ML), according to manufacturer instructions.

The next experiment relates to beige adipocytes. In words: Lipolysis validation assays of primary hits at three concentrations. The note with it: Homo sapiens, Adipocyte, 24 h; for activity at 2.2 µM: Conc. 2.2 µM; for activity at 6.7 µM: Conc. 6.7 µM; for activity at 20 µM: Conc. 20 µM; for activity at 2200 µM: Conc. 2.2 mM. In short, it runs like this:
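ADSC-derived adipocytes, differentiated 20 days, incubated in DMEM with 2% fatty-acid-free BSA and Triacsin C (5 μM). Glycerol release measured after 24 h compound treatment at three concentrations, normalised to untreated control as percent; 2-fold cut-offs defined activators and inhibitors.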

The structures appear in SMILES notation. Like-named read-outs stand apart in the source and are kept apart here.

Regarding `C=C[C@@]1(C)CC(=O)[C@]2(O)[C@@]3(C)[C@@H](O)CCC(C)(C)[C@@H]3[C@H](O)[C@H](OC(C)=O)[C@@]2(C)O1` [Forskolin], the “Elevation of uncoupled respiration (proton leak) relative to basal conditions” value in the experiment on GC [1] worked out at 64.7%. In addition, the “Increase in free glycerol in the media” value in the experiment on GC [2] (4 hours of FSK (20 μM)) was approximately 2 fold; in the experiment with GC [2] (8 hours of FSK (20 μM)), approximately 5 fold. Moreover, the activity at 2.2 µM came out at 394% in the experiment on beige adipocytes (read-out: % of Control (2)) and 247% in the experiment with beige adipocytes (read-out: % of Control (4)). The activity at 6.7 µM with beige adipocytes (read-out: % of Control (1)) was 311%; in the experiment on beige adipocytes (read-out: % of Control (2)), 362%; in the experiment on beige adipocytes (read-out: % of Control (3)), 241%; in the experiment on beige adipocytes (read-out: % of Control (4)), 242%. Besides, the activity at 20 µM in the experiment on beige adipocytes (read-out: % of Control (1)) amounted to 417%; in the experiment on beige adipocytes (read-out: % of Control (2)) it was 330%; in the experiment with beige adipocytes (read-out: % of Control (3)), 253%; in the experiment on beige adipocytes (read-out: % of Control (4)), 267%. In addition, the activity at 2200 µM with beige adipocytes (read-out: % of Control (1)) was determined as 417%; with beige adipocytes (read-out: % of Control (3)) it was 252%.
